One assay concerns the target PDGFRα (Homo sapiens, UniProt P16234). As to conditions: cited from earlier work.
In assay [1] the test system is primary human GB cells. Briefly: cell migration on multi-well nanopatterned platform (time-lapse microscopy). In kind it is cell-based. As to conditions: for fraction of cells maintaining slower speeds (≦15 μm/hr): PDGF-exposed. Here is the method: (§1) Cells were cultured in the multi-well, nanopatterned device for approximately 48 hours in the course of each experiment. Prior to plating cells, nanoridged substrata were coated with poly-D-lysine (10 μg ml-1) for 15 minutes and mouse laminin (from 10 to 140 μg ml-1) for 1 hour. These topographically patterned cell substrata, caused cells to align with and move along the direction of the nanoridges. Both prior to, and during experiments cells were maintained at 37° C. and 5% CO2 in Dulbecco's Modified Eagle Medium: Nutrient Mixture F-12 containing 2 mM L-glutamine, with added 50 U mL-1 penicillin, […] streptomycin. Where indicated, media contained 10% fetal bovine serum (Invitrogen) or alternatively, Platelet-Derive Growth Factor-AA (PDGF-AA) (LC Laboratories) at specified concentrations.
Cell migration was observed using time-lapse microscopy (Movies S1-S3). To enable long-term observation, the multi-well, nanopatterned device was mounted onto the stage of a motorized inverted microscope (Olympus IX81) equipped with a Photometrics® Cascade® 512B II CCD camera and temperature and gas controlling environmental chamber. Phase contrast cell images were automatically recorded under 10× objective (NA=0.30) using the SlideBook™ 4.1 Software (Intelligent Imaging Innovations, Denver, Colo.) for 10-15 hours at 10 or 20 minute intervals.
Because cell-cell contact is known to affect the extent of cell spreading and migration, cells were plated at low density (˜4×10^4 cells mL -1) to allow isolated movements. A custom-made MATLAB® script was used allow manual tracking and measurement of cells frame by frame. Analysis was stopped in the event of cell death, division, collision with non-cellular debris, or movement out of the field of view. Area and spindle shape factor of individual cells was measured in each frame, and averaged over the entire duration of the experiment. The spindle shape factor was defined as the ratio of the maximum cell length (long axis) to the maximum cell width in the direction perpendicular to long axis, regardless of the orientation with respect to nanoridge pattern. Averages of cell populations were calculated from at least 60 cells.
Cells movements were tracked by centroid position or by the approximate center of the cell body. Individual cell trajectories were used to calculate the mean squared displacement (MSD) at each interval. Instantaneous speeds of individual cells were calculated from the MSD and the duration of the image acquisition time interval. Average speeds of individual cells were calculated from the total distanced moved throughout the entire cell trajectory and the total time the cell was tracked. Persistence was obtained as previously described, by calculating the ratio of the shortest distance between starting point and end point, divided by the total distanced moved. Alignment to the nanoridge pattern was calculated by dividing the distance moved parallel to the ridges, by the distance moved perpendicular to the ridges. Averages of cell populations were calculated from at least 60 cells.

In another assay the test system is GB. To be noted: cited from earlier work.
In assay [2] the test system is primary human GB cells. Briefly: cell migration on flat (smooth) substrata. Type of assay: cell-based. The procedure:
as §1, with “Prior to plating cells, nanoridged substrata were coated with poly-D-lysine (10 μg ml-1) for 15 minutes and mouse laminin (from 10 to 140 μg ml-1) for 1 hour.” left out
Cell migration was observed using time-lapse microscopy (Movies S1-S3). […] Phase contrast cell images were automatically recorded under 10× objective (NA=0.30) using the SlideBook™ 4.1 Software (Intelligent Imaging Innovations, Denver, Colo.) for 10-15 hours at 10 or 20 minute intervals.
Because cell-cell contact is known to affect the extent of cell spreading and migration, cells were plated at low density (˜4×10^4 cells mL -1) to allow isolated movements. […] Area and spindle shape factor of individual cells was measured in each frame, and averaged over the entire duration of the experiment. […] Averages of cell populations were calculated from at least 60 cells. […]

Another assay relates to Akt. Briefly: Akt phosphorylation via immunoblotting. As to conditions: FIG. 10B. Type of assay: cell-based, human.
The next assay concerns human GB cells. As to the kind of experiment: mouse intracranial tumor xenograft of human GB cells with PDGF exposure. In kind it is in vivo. The procedure: All animal protocols were approved by the Johns Hopkins School of Medicine Animal Care and Use Committee. For intracranial xenografts, SCID immnodeficient mice received 100,000 viable cells in 1 μl of DMEM/F12 serum media without growth factors by stereotactic injection into the right striatum. Cells were cultured in DMEM/F12 serum media with EGF/FGF and PDGF-AA ligand for three weeks before injections were performed. Cell viability was determined by trypan blue dye exclusion. Mice were perfused with 4% paraformaldehyde at the indicated times and the brains were removed for histological analysis.

Sequence of PDGFRα (P16234 24-1089): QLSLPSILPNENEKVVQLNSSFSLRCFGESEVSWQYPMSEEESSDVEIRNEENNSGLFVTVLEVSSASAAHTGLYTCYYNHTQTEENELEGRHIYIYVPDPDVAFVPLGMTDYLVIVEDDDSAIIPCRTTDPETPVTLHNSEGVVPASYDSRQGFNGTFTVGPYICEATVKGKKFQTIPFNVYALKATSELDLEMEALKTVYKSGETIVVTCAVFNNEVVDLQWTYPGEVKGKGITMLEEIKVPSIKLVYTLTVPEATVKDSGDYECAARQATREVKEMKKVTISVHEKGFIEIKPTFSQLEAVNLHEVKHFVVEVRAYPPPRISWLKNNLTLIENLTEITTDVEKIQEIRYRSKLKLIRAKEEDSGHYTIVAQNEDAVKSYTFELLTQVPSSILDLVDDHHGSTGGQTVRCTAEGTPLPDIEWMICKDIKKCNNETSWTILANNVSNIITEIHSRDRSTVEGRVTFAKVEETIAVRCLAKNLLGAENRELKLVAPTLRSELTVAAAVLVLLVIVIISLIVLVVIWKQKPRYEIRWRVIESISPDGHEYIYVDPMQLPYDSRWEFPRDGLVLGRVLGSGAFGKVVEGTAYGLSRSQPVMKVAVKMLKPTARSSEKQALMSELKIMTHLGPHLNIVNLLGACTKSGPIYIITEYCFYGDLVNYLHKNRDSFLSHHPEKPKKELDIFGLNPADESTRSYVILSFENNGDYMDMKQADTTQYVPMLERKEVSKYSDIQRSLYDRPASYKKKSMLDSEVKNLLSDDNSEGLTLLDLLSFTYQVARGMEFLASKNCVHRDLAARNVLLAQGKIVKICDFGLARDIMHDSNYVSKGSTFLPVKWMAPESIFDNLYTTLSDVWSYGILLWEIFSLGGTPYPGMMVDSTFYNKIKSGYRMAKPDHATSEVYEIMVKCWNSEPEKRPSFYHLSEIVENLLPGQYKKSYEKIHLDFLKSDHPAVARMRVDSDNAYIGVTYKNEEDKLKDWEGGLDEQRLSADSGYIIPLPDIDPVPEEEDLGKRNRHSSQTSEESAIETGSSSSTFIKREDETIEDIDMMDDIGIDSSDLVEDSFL
Description for Akt: Total cellular protein was extracted using NE-PER Nuclear and Cytoplasmic Extraction Reagents kit according to the manufacturer's instructions (Thermo Scientific) containing protease (Roche) and phosphatase inhibitor (Thermo). Protein concentration was determined using the Bradford protein quantification method (Biorad Protein Assay, Biorad). SDS-PAGE was performed with 25 μg total cellular protein per lane using 4-12% gradient Tris glycine gels. The primary antibodies used were as follows: anti PDGFR-alpha (1:200; Santa Cruz); phospho-PDGFR alpha (1:1000; Cell Signaling); Akt (1:1000; Cell Signaling);
phospho-Akt (1:1000; Cell Signaling).

Take `Cc1ccc(NC(=O)c2ccc(CN3CCN(C)CC3)cc2)cc1Nc1nccc(-c2cccnc2)n1` [Imatinib]: at PDGFRα, the “interaction with PDGFRα” value is reported as “known to interact with PDGFRα”. In addition, in the assay with primary human GB cells [1] ('responding' sample GB 276, PDGF-stimulated), the “effect on PDGF-stimulated migration (speed and alignment)” value is “attenuation of enhancements in speed and alignment”. In addition, the GB growth entry with GB is “inhibit GB growth in vitro and in vivo”.

PDGF: the “migratory response to PDGF exposure” value in the assay on primary human GB cells [2] was “much more limited responses”. In addition, the “increase in migration speed upon PDGF stimulation vs unstimulated cells” value in the assay on primary human GB cells [1] ('responding' GB samples, PDGF 40-50 ng/mL) is on record as 15-100%. The “fraction of cells maintaining slower speeds (≦15 μm/hr)” value in the assay with primary human GB cells [1] (GB 318 cells) is listed as “roughly 70%”; in the assay with primary human GB cells [1] (GB 630 cells), ~60%. Also, in the assay on primary human GB cells [1] (in the presence of PDGF), the “sub-population of aggressive cells accounting for the increased average migration speed” value is given as “approximately 20%”. In addition, the “maximal motility relative to control” value in the assay on primary human GB cells [1] (nanopatterned system, intermediate PDGF concentrations, serum-free medium) was “up to 2 fold”. The “dose dependence of response in migration speed and persistence” value in the assay on primary human GB cells [1] (nanopatterned system, seven PDGF concentrations) was “clear graded dose dependence”. For the same molecule, in the assay with Akt, the “phosphorylation (activation) of downstream effector Akt” value is “PDGFdependent”. The survival of mice result in the assay on human GB cells (GB 276 neurospheres cultured with PDGF three weeks before intracranial injection, n=4) is listed as “significantly reduced survival”. The “tumor size, invasiveness and shape” value in the assay with human GB cells (continuous PDGF exposure of tumor xenografts via infusion pump, n=2) is “larger, more invasion tumors with more eccentric shapes”.

Take “laminin: surface-immobilized ECM protein used to coat substrata”: the “differences in migration at varying laminin densities” value in the assay on primary human GB cells [2] (GB 318 cells) is reported as “did not observe statistically significant differences”. Besides, in the assay with primary human GB cells [1] (GB 318 cells, nanopatterned substrata, optimum at intermediate laminin values), the “response of speed, alignment and persistence to laminin coating concentration” value is on record as “biphasic response”.

The values are drawn from patent US20170016884A1, “A NOVEL, HIGH-THROUGHPUT, NANOTOPOGRAPHIC PLATFORM FOR SCREENING CELL MIGRATORY BEHAVIOR” (THE JOHNS HOPKINS UNIVERSITY, priority 2014, published 2017).
